Results on 36 compounds are retold here after patent US20020010182A1, “Piperazine derivatives as tachykinin antagonists” (FUJISAWA PHARMACEUTICAL CO., LTD., priority 1995, published 2002).

Counter-ions that a name gives are not always drawn.

One series deals with T1, h-NK1 receptors (Homo sapiens, UniProt P25103).
T1 construct: expressed in transfected cells; host or cells: CHO cells (permanent expression), crude cell membranes
T1 sequence (P25103 whole entry): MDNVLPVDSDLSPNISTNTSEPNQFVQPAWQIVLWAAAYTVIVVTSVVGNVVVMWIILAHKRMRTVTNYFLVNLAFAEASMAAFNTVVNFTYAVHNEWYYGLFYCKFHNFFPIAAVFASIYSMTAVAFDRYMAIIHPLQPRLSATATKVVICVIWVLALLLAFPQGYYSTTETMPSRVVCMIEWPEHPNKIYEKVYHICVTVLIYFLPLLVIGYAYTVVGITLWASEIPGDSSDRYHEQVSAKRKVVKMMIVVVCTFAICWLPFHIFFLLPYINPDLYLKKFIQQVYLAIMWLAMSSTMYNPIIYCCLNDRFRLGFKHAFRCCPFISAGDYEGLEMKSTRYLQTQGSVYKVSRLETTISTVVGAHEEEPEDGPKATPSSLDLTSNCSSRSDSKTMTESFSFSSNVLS
The experiment in a line: Evaluation of NK1 antagonist transport efficiency to the central nervous system using a h-NK1 receptor binding assay. Particulars: 5 min, brain extract of male SD rats 5 min after i.v. injection of test compound, CHO cell membranes expressing h-NK1, read-out: inhibition rate of 125I-BH-Substance P binding to h-NK1 receptors. The protocol:
A. Evaluation of NK1 Antagonist Transport Efficiency to the Cental Nervous System Using a h-NK1 Receptor Binding Assay
(1) Administration of Test Compound and Extraction of the Compound From Brain
Male SD rats were given an i.v. injection of a solution containing a test compound (1 mg/kg). 5 Min later the animals were anesthetized by ether, bled and perfused through the aorta ascendens with 20 ml of saline. The brain was rapidly removed, weighed and homogenized in 4 vol. ice-cold distilled water by using Polytoron (KINEMATICA). To extract the test compound, 500 μl of the homogenate, 100 μl of methanol, 500 μl of 0.1 N NaOH and 4 ml of ethyl acetate were mixed by shaking for 10 min at room temperature. The organic phase (2.5 ml) was recovered by centrifugation at 3,000 rpm for 10 min, dried and dissolved in dimethyl sulfoxide.
(2) h-NK1 Receptor Binding Assay
(a) Crude CHO Cell Membrane Preparation
CHO cells permanently expressing h-NK1 receptors were harvested and homogenized with a Dounce homogenizer at 4° C. in a buffer (0.25 M sucrose, 25 mM Tris-HCl (pH 7.4), 10 mM MgCl2, 1 mM EDTA, 5 μg/ml p-APMSF). The homogenate was centrifuged (500×g, 10 min), and the pellet was resuspended in the same buffer, homogenized, and centrifuged. The two supernatants were combined and centrifuged (100,000×g, 1 hour). The crude cell membranes thus isolated were resuspended in a buffer (25 MM Tris-HCl (pH 7.4), 10 mM MgCl2, 1 mM EDTA, 5 μg/ml p-APMSF) and stored at −80° C. until use.
(b) ^125I-BH-Substance P Binding to the Prepared Membrane
Cell membranes (6 μg/ml) were incubated with ^125I-BH-Substance P (0.1 nM) with or without the extracted compounds in 0.25 ml of a medium (50 mM Tris-HCl (pH 7.4), 5 mM MnCl2, 20 μg/ml chymrostatin, 40 μg/ml bacitracin, 4 μg/ml leupeptin, 5 μg/ml p-APMSF, 200 μg/ml BSA) at 22° C. for 90 min. At the end of the incubation period, the contents were quickly filtered through a Blue Mat 11740 filter (pretreated with 0.1% polyethylenimine for 3 hours prior to use) by using SKATRON Cell Harvester. The filter was then washed with a washing buffer (50 mM Tris-HCl (pH 7.4), 5 mM MnCl2) . The radioactivity was counted by using an auto gamma counter (Packard RIASTAR 5420A). All data presented are specific binding defined as that displaceable by 3 μM unlabeled Substance P.
`Cc1ccc(C[C@@H]2CN(Cc3cn(C)cn3)CCN2C(=O)c2cc(C(F)(F)F)cc(C(F)(F)F)c2)cc1C` [52-(1), (2R)-1-[3,5-Bis(trifluoromethyl)benzoyl]-2-(3,4-dimethylbenzyl)-4-[(1-methyl-1H-imidazol-4-yl)methyl]piperazine dihydrochloride]: the inhibition at 1 mg/kg was greater than 80%.
On the same count and under the same terms, the figure for `Cc1ccc(C[C@@H]2CN(CCCNN3CCOCC3)CCN2C(=O)c2cc(C(F)(F)F)cc(C(F)(F)F)c2)cc1C` [67-(4), (2R)-1-[3,5-Bis(trifluoromethyl)benzoyl]-2-(3,4-dimethylbenzyl)-4-[3-(morpholinoamino)propyl]piperazine dihydrochloride] is greater than 80%.
Same read-out and setting: as for `Cc1ccc(C[C@@H]2CN(CCCNCc3cccnc3)CCN2C(=O)c2cc(C(F)(F)F)cc(C(F)(F)F)c2)cc1C` [82-(1), (2R)-1-[3,5-Bis(trifluoromethyl)benzoyl]-2-(3,4-dimethylbenzyl)-4-[N-(3-pyridylmethyl)-3-aminopropyl]piperazine trihydrochloride], the figure is greater than 80%.
On the same count and under the same terms, as for `Cc1ccc(C[C@@H]2CN(C/C=C/CNCc3cccnc3)CCN2C(=O)c2cc(C(F)(F)F)cc(C(F)(F)F)c2)cc1C` [82-(5), (2R)-1-[3,5-Bis(trifluoromethyl)benzoyl]-2-(3,4-dimethylbenzyl)-4-[(E)-N-(3-pyridylmethyl)-4-amino-2-butenyl]piperazine trihydrochloride], the figure is greater than 80%.

Test system in the next series: not given
Test: not given
Settings: not given
With `Cl.O=C(CN1CCN(C(=O)c2cc(C(F)(F)F)cc(C(F)(F)F)c2)[C@H](Cc2c[nH]c3ccccc23)C1)N1CCN(c2ccc(F)cc2)CC1`, the melting point was 183 °C (dec.).
The same measure, in the same setting: the figure for `Cl.O=C(CN1CCN(C(=O)c2cc(C(F)(F)F)cc(C(F)(F)F)c2)[C@H](Cc2c[nH]c3ccccc23)C1)N1CCN(C2CCCC2)CC1` is 270 °C (dec.).
Turning to `Cl.Cl.O=C(c1cc(C(F)(F)F)cc(C(F)(F)F)c1)N1CCN(CCCN2CCOCC2)C[C@H]1Cc1c[nH]c2ccccc12`, the melting point was 265 °C (dec.).
Still for that read-out and setting: as for `Cl.Cl.O=C(c1cc(C(F)(F)F)cc(C(F)(F)F)c1)N1CCN(CC#CCN2CCOCC2)C[C@H]1Cc1c[nH]c2ccccc12`, the figure is 165 to 169 °C.
On the same count and under the same terms, as for `Cc1ccc(C[C@@H]2CN(CC#CCN3CCSCC3)CCN2C(=O)c2cc(C(F)(F)F)cc(C(F)(F)F)c2)cc1C.Cl.Cl`, the figure is 162 to 170 °C.
Still for that read-out and setting: as for `Cl.Cl.O=C(c1cc(C(F)(F)F)cc(C(F)(F)F)c1)N1CCN(CCN2CCOCC2)C[C@H]1Cc1c[nH]c2ccccc12`, the figure is 170 to 176 °C.
In the case of `Cl.Cl.Cl.O=C(c1cc(C(F)(F)F)cc(C(F)(F)F)c1)N1CCN(CCCN2CCN(C3CCCCC3)CC2)C[C@H]1Cc1c[nH]c2ccccc12`, the melting point is 250 °C (dec.).
The same measure, in the same setting: as for `Cc1ccc(C[C@@H]2CN(Cc3ccc([N+](=O)[O-])cc3)CCN2C(=O)c2cc(C(F)(F)F)cc(C(F)(F)F)c2)cc1C.Cl.Cl`, the figure is 140 °C (dec.).
Same read-out and setting: the figure for `Cl.O=C(CN1CCN(C(=O)c2cc(C(F)(F)F)cc(C(F)(F)F)c2)[C@H](Cc2c[nH]c3ccccc23)C1)c1cccc(F)c1` is 195 °C (dec.); for `Cl.Cl.O=C(c1cc(C(F)(F)F)cc(C(F)(F)F)c1)N1CCN(CCCN2CC=CCC2)C[C@H]1Cc1c[nH]c2ccccc12` it is greater than 200 °C.
On the same count and under the same terms, as for `Cl.Cl.O=C(c1cc(C(F)(F)F)cc(C(F)(F)F)c1)N1CCN(CCCN2CC3CCC(CC3)C2)C[C@H]1Cc1ccc(Cl)c(Cl)c1`, the figure is 150 °C (dec.).
Take `Cl.Cl.Cl.O=C(c1cc(C(F)(F)F)cc(C(F)(F)F)c1)N1CCN(CCCN2CCC(N3CCCCC3)CC2)C[C@H]1Cc1ccc(Cl)c(Cl)c1`: the melting point is greater than 200 °C.
The same measure, in the same setting: as for `Cc1ccc(C[C@@H]2CN(CC#CCN3CCOC(CF)C3)CCN2C(=O)c2cc(C(F)(F)F)cc(C(F)(F)F)c2)cc1C.Cl.Cl` (stereo partly drawn), the figure is 175 to 180 °C.
Still for that read-out and setting: the figure for `COC[C@@H]1CCCN1CC#CCN1CCN(C(=O)c2cc(C(F)(F)F)cc(C(F)(F)F)c2)[C@H](Cc2ccc(C)c(C)c2)C1.Cl.Cl` is 195 to 197 °C; for `COCC1COCCN1CC#CCN1CCN(C(=O)c2cc(C(F)(F)F)cc(C(F)(F)F)c2)[C@H](Cc2ccc(C)c(C)c2)C1.Cl.Cl` (stereo partly drawn) it is 140 to 155 °C.
`Cl.O=C(CN1CCN(C(=O)c2cc(C(F)(F)F)cc(C(F)(F)F)c2)[C@H](Cc2c[nH]c3ccccc23)C1)c1ccc(F)c(F)c1`: the melting point was 171 °C (dec.).
Still for that read-out and setting: as for `Cc1ccc(C(=O)CN2CCN(C(=O)c3cc(C(F)(F)F)cc(C(F)(F)F)c3)[C@H](Cc3c[nH]c4ccccc34)C2)cc1.Cl`, the figure is 203 °C (dec.).
The same measure, in the same setting: the figure for `Cc1ccc(C(=O)CN2CCN(C(=O)c3cc(C(F)(F)F)cc(C(F)(F)F)c3)[C@H](Cc3c[nH]c4ccccc34)C2)cc1C.Cl` is 166 °C (dec.); for `Cc1ccc(C[C@@H]2CN(CC#Cc3cccnc3)CCN2C(=O)c2cc(C(F)(F)F)cc(C(F)(F)F)c2)cc1C.Cl.Cl` it is 140 to 150 °C.
On the same count and under the same terms, the figure for `Cl.Cl.O=C(c1cc(C(F)(F)F)cc(C(F)(F)F)c1)N1CCN(C/C=C/CN2CCSCC2)C[C@H]1Cc1ccc2ccccc2c1` is greater than 230 °C; for `Cc1ccc(C[C@@H]2CN(C/C=C/CN3CCSCC3)CCN2C(=O)c2cc(C(F)(F)F)cc(C(F)(F)F)c2)cc1C.Cl.Cl` it is greater than 230 °C; for `Cc1ccc(C[C@@H]2CN(C/C=C/CN3CCOCC3(C)C)CCN2C(=O)c2cc(C(F)(F)F)cc(C(F)(F)F)c2)cc1C.Cl.Cl` it is greater than 230 °C.
Compound `Cl.Cl.O=C(c1cc(C(F)(F)F)cc(C(F)(F)F)c1)N1CCN(CC#CCN2CCSCC2)C[C@H]1Cc1ccc2ccccc2c1` returned a melting point of 152 to 156 °C.
In the case of `Cc1ccc(C[C@@H]2CN(CC#CCN3CCN(C4CCCCC4)CC3)CCN2C(=O)c2cc(C(F)(F)F)cc(C(F)(F)F)c2)cc1C.Cl.Cl.Cl`, the melting point was 175 to 190 °C.
Still for that read-out and setting: as for `Cl.Cl.O=C(c1cc(C(F)(F)F)cc(C(F)(F)F)c1)N1CCN(CC#CCN2CCSCC2)C[C@H]1Cc1ccc(C(F)(F)F)cc1`, the figure is 173 °C (dec.); as for `Cl.Cl.O=C(c1cc(C(F)(F)F)cc(C(F)(F)F)c1)N1CCN(CC#CCN2CCSCC2)C[C@H]1Cc1cccc2ccccc12`, 191 °C (dec.).
The compound `Cc1ccc(C[C@@H]2CN(CCCc3cnn(C)c3)CCN2C(=O)c2cc(C(F)(F)F)cc(C(F)(F)F)c2)cc1C.Cl` registered a melting point of 163 to 165 °C.
`Cc1ccc(C[C@@H]2CN(CCCc3cccnc3)CCN2C(=O)c2cc(C(F)(F)F)cc(C(F)(F)F)c2)cc1C.Cl.Cl` registered a melting point of 163 to 168 °C.
Same read-out and setting: the figure for `CN(C)c1ccc(C(=O)CN2CCN(C(=O)c3cc(C(F)(F)F)cc(C(F)(F)F)c3)[C@H](Cc3c[nH]c4ccccc34)C2)cc1` [Example 8, (2R)-1-[3,5-bis (trifluoromethyl)benzoyl]-4-(4-dimethylaminophenylcarbonylmethyl)-2-(1H-indol-3-ylmethyl]piperazine] is 185 °C (dec.).
Turning to `CC(=O)c1cccc(C(=O)N2CCN(C(=O)c3cc(C(F)(F)F)cc(C(F)(F)F)c3)[C@H](Cc3c[nH]c4ccccc34)C2)c1` [Example 16-(1), (2R)-4-(3-Acetylbenzoyl)-1-[3,5-bis(trifluoromethyl)benzoyl]-2-(1H-indol-3-ylmethyl)piperazine], the melting point lay in the range of 186 to 187.5 °C.
Same read-out and setting: the figure for `CC(=O)c1ccccc1C(=O)N1CCN(C(=O)c2cc(C(F)(F)F)cc(C(F)(F)F)c2)[C@H](Cc2c[nH]c3ccccc23)C1` [Example 16-(2), (2R)-4-(2-Acetylbenzoyl)-1-[3,5-bis(trifluoromethyl)benzoyl]-2-(1H-indol-3-ylmethyl)piperazine] is 190 to 192 °C; for `O=C(c1cc(C(F)(F)F)cc(C(F)(F)F)c1)N1CCN(CCCC2(c3ccc(F)cc3)OCCO2)C[C@H]1Cc1c[nH]c2ccccc12` [Example 38, (2R)-4-[4,4-ethylenedioxy-4-(4-fluorophenyl)butyl]-1-[3,5-bis (trifluoromethyl)benzoyl]-2-(1H-indol-3-ylmethyl) piperazine] it is 145 to 146 °C.
